The source of these data is PubChem BioAssay AID449764 (Southern Research Specialized Biocontainment Screening …, 2010).

Where only a bound is given, the exact number is not on record here.

For the assay, the system named is Mycobacterium tuberculosis H37Rv growth inhibition, no glycerol. The assay is described as follows: Confirmatory growth inhibition assay, Mycobacterium tuberculosis H37Rv, absence of glycerol (AID 449764).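 On all read-outs here: growth read after 7 days of incubation.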 The following applies: for IC90: measured here: IC90 growth inhibition.

Consider `C=CCOC(=O)COc1ccc2c(C)c(CC)c(=O)oc2c1`, for which the IC50 was 1.49 µM and the IC90 turned out to be 1.68 µM.

Regarding `CC(C)(C)OC(=O)NNC(=S)NC1CCCCC1`, the IC90 is more than 100 µM.

For the compound `COc1cnc(-c2ccccn2)nc1Oc1ccc(Cl)c2ccccc12`, the IC50 is 0.67 µM and the IC90 was 1.38 µM. For `C/C(=N\NC(=S)NCC(C)(C)C)c1cc(F)cc(F)c1O`, the IC50 is 9.33 µM and the IC90 came out at 37.1 µM.

For the compound `CC(C)Cc1ccc(C(C)C(N)=NCCc2ccccc2)cc1` (stereo not drawn), the half-maximal inhibitory concentration (IC50) is 24.1 µM and the IC90 is 27.8 µM. Regarding `CCN(CC)C(=O)c1cc([N+](=O)[O-])cc2c1-c1ccc([N+](=O)[O-])cc1C2=C(C#N)C#N`, the half-inhibitory concentration (IC50) is 21.7 µM and the IC90 was 24.3 µM. `O=c1cc(N=Nc2ccc(Cl)cc2)[nH]c(=O)[nH]1`: the IC50 was 78.9 µM and the IC90 is more than 100 µM.

`Clc1ccc(C(Cn2ccnc2)OCc2csc3c(Cl)cccc23)c(Cl)c1` (stereo not drawn): the IC50 was 17.7 µM and the IC90 was 23.9 µM. Consider `Nc1nnnn1/N=C/C(Br)=C/c1ccccc1`, for which the IC50 is 5.6 µM and the IC90 was 10.9 µM.

As for `CC(C)(C)NC(=O)C(c1c[nH]c2ccccc12)N(C(=O)Cn1nnc(-c2ccc(F)cc2)n1)c1cccc(O)c1` (stereo not drawn), the IC50 was 34.7 µM and the IC90 was 45.6 µM. In the case of `CSc1nsc(/C=C/Nc2ccc(O)cc2C)c1C#N`, the IC50 is 44.5 µM and the IC90 stood at 49.6 µM. As to `Cc1ccc(C#CC[N+]2(CC#Cc3ccc(C)cc3)CCCCC2)cc1`, the IC50 is 21.4 µM and the IC90 was found to be 24.8 µM. Turning to `COc1cc2c(cc1OC)C(c1cc(Br)ccc1F)N(C(=O)CCl)CC2` (stereo not drawn), the IC50 is 16.6 µM and the IC90 came to 23 µM. For `O=[N+]([O-])c1c(C(Cl)Cl)nn(-c2ccc(Cl)cc2)c1N1CCCCC1`, the IC50 was 21.2 µM and the IC90 was found to be 23.3 µM. With `S=C(NN=C1CCN(Cc2ccccc2)CC1)NC1CCCCC1`, the IC50 is 43.6 µM and the IC90 was determined as 47 µM. Turning to `CCOC(=O)/C(=N/Nc1ccc(OC)cc1)N1CCCc2ccccc21`, the IC50 was 95.3 µM and the concentration for an effect of 90% (IC90) was more than 100 µM.

Take `O=c1cc2[nH]c3ccccc3c(=O)n2nc1-c1ccccc1`: the IC50 is 10.4 µM and the IC90 came to 15 µM. For `C#CCn1c(=NC(=O)c2cc(Cl)sc2Cl)sc2cc(S(N)(=O)=O)ccc21`, in that order: 12 µM and 34.1 µM. `O=C(CSc1nnnn1C1CCCCC1)Nc1nc2c(s1)CCCC2`: the IC50 is 46.9 µM and the concentration for an effect of 90% (IC90) amounted to 53.1 µM. With `CCOC(=O)C1=C(C)Nc2nc(SCC(=O)OC)nn2C1c1cc(F)cc(F)c1` (stereo not drawn), the IC50 is 9.99 µM and the IC90 is 12.5 µM.

As for `Cn1nnnc1Sc1ncnc2scc(-c3cc4ccccc4o3)c12`, the IC50 is 5.11 µM and the IC90 amounted to 12.1 µM.

`Cc1ccc(-c2ccc(C3C(C#N)=C(N)Oc4n[nH]c(C)c43)o2)cc1` (stereo not drawn) returned an IC90 of more than 100 µM. For the compound `Cc1ccc(C)c(NC(CC(=O)c2ccccc2)C(=O)OCC(=O)c2cccs2)c1` (stereo not drawn), the IC50 is 11.1 µM and the IC90 is 11.7 µM. On to `Cc1cc(C(=O)COC(=O)C2=COCCO2)c(C)n1-c1cccc(F)c1`, for which the IC50 was 9.64 µM and the IC90 is more than 100 µM. As to `Cc1cc2c(ccc3c2no[n+]3[O-])nn1`, the IC50 is 17.4 µM and the IC90 is 22.8 µM. On to `Cc1ccc(Cl)cc1N1CCN(CC(=O)NC2CCCc3ccccc32)CC1` (stereo not drawn), for which the IC50 was 35.6 µM and the concentration for an effect of 90% (IC90) worked out at 51.1 µM. On to `COC(=O)c1cc(/C=C/c2ccccc2)on1`, for which the IC50 is 29.3 µM and the 90% effect concentration (IC90) was more than 100 µM. With `Cc1ccc(-n2cc(CNCCn3nc(C)cc3C)c(-c3ccc(F)cc3)n2)cc1`, the IC50 is 8.2 µM and the IC90 is 13.5 µM. Regarding `COc1ccc2c(c1)CCc1c(C(=O)Nc3c(C)n(C)n(-c4ccccc4)c3=O)noc1-2`, the IC50 is 89.6 µM and the concentration for an effect of 90% (IC90) is more than 100 µM.

Turning to `CCOC(=O)COc1ccc(C2CC(C)=NN2c2ccccc2)cc1` (stereo not drawn), the IC50 was 8.21 µM and the IC90 is 12.9 µM. For the compound `COC(=O)C1C2c3ccccc3OC1(C)N=c1s/c(=C/c3cnn(C)c3C)c(=O)n12` (stereo not drawn), the IC50 is 6.44 µM and the IC90 came to 41.1 µM. As to `C=CCc1c(C)nc(C)nc1N/N=C/c1ccccc1O`, the IC50 is 4.61 µM and the IC90 is 8.85 µM. For `Cc1sc2ncnc(N3CCC(C(=O)NCC(=O)Nc4ccc(F)c(F)c4)CC3)c2c1C`, in that order: 46.7 µM and 53.1 µM. On the same counts, the results for `CCOC(=O)CSc1nn(-c2ccccc2)c(=S)s1` are 6.12 µM and 6.9 µM.

Regarding `O=C(Oc1ccccc1)c1ccccc1OS(=O)(=O)c1ccccc1`, the IC50 is 2.37 µM and the 90% effect concentration (IC90) was 14.1 µM. For the compound `Oc1cc(NCc2cccnc2)ccc1-c1nc2ccccc2o1`, the IC50 is 31.6 µM and the IC90 stood at 61.3 µM. On to `O=C(Nc1cccc(-c2csc(Nc3ccc(Cl)cc3)n2)c1)c1cccc(C(F)(F)F)c1`, for which the IC50 was 43.8 µM and the IC90 was more than 100 µM. For `CCOC(=O)C1(CCOc2ccccc2)CCN(Cc2cccc(-n3cccn3)c2)CC1`, in that order: 28.1 µM and 34.5 µM.

Turning to `Cn1cnc(Sc2ncnc3nc[nH]c23)c1[N+](=O)[O-]`, the IC50 was 12.1 µM and the IC90 stood at 21.1 µM. Consider `Cc1nonc1OCCNCCNc1ccc([N+](=O)[O-])c2cccnc12`, for which the IC50 was 17.7 µM and the IC90 came out at 31.4 µM. Turning to `CCOC(=O)c1ccc(NC(=S)NCCc2ccc(F)cc2)cc1`, the IC50 was 75.3 µM and the concentration for an effect of 90% (IC90) was more than 100 µM.

Take `CN(C)c1ccc(CNc2nc(-c3ccccc3)nn2S(C)(=O)=O)cc1`: the 50% inhibitory concentration (IC50) was 14.2 µM and the concentration for an effect of 90% (IC90) came to 26.5 µM. For `CO[C@@]12[C@H](COC(N)=O)C3=C(C(=O)C(C)=C(N)C3=O)N1C[C@@H]1N[C@@H]12`, in that order: 74.9 µM and more than 100 µM. Consider `O=[N+]([O-])c1ccc(O)c(-c2cc(C(F)(F)F)nc(-c3ccccc3)n2)c1`, for which the IC50 is 20.4 µM and the IC90 turned out to be 22.1 µM. For `CCOc1ccc(C(=O)CCN2CCCCCC2)cc1`, the IC50 is 23.7 µM and the IC90 was 26.2 µM. In the case of `Cc1cc(C)c2nc(-c3ccncc3)cc(C(=O)N3CCN(Cc4ccccc4Cl)CC3)c2c1`, the IC50 was 31.3 µM and the 90% effect concentration (IC90) was 43.7 µM. With `O=C(COc1cccc(Oc2ccccc2)c1)Nc1ncccn1`, the IC50 is 50.4 µM and the IC90 is more than 100 µM. As to `CCCSc1nn2c(=O)c3ccccc3nc2s1`, the half-maximal inhibitory concentration (IC50) was 14.7 µM and the IC90 came out at 28.1 µM.

On to `Cc1ccc2nc(/C(C#N)=C/c3cn[nH]c3-c3ccc(F)cc3)[nH]c2c1`, for which the IC50 is 19.2 µM and the IC90 worked out at 25.4 µM. As for `CC(C)(C)C1CCc2nc(NC(=O)Cc3cn4ccsc4n3)sc2C1` (stereo not drawn), the IC50 is 24.3 µM and the IC90 stood at 35.4 µM.

Consider `CCOC(=O)c1cnc(SC2CCc3ccccc3C2=O)nc1N` (stereo not drawn), for which the IC50 was 87.1 µM and the IC90 is 96.5 µM. In the case of `CCCCCc1nc2c(c(=O)c3ccccc3n2C)c(=O)n1C1CCCCCC1`, the IC50 was 55.6 µM and the IC90 was 77.5 µM.

Regarding `O=C(c1cc([N+](=O)[O-])cc([N+](=O)[O-])c1)N(Cc1nnc(-c2ccccc2Cl)o1)C1CC1`, the IC50 was 15.8 µM and the IC90 was determined as 23.5 µM. For the compound `O=C(COC(=O)c1cccs1)c1ccccc1`, the IC50 was 45.8 µM and the IC90 is more than 100 µM.

In the case of `CCSc1ncc(/C=N/Nc2ccccc2)n1C`, the IC50 is 82.6 µM and the IC90 is more than 100 µM. `CCCOc1cccc(C(=O)NC(=S)Nc2ccc(N3CCN(C)CC3)cc2)c1` returned an IC90 of more than 100 µM. As for `O=C(Oc1c(Cl)cc(Cl)c2cccnc12)c1cccs1`, the half-inhibitory concentration (IC50) was 1.28 µM and the IC90 turned out to be 1.38 µM. In the case of `C=CCOc1ccc(C2C(C#N)=C(N)N(Nc3ccccc3)C3=C2C(=O)CC(C)(C)C3)cc1OC` (stereo not drawn), the IC50 is 41.3 µM and the IC90 was more than 100 µM. For `COc1ccc(C(=O)OCCNC(=O)c2c(Cl)nc3ccccn23)cc1`, in that order: 4.19 µM and 10.6 µM. On to `CCOc1ccc(-c2cc(CCCC(=O)NCCC(C)C)no2)cc1`, for which the IC50 is 22.6 µM and the IC90 turned out to be 25.7 µM. Turning to `Cc1ccc2nc(-c3cccc(Br)c3)cc(C(=O)NC3=NCCS3)c2c1`, the IC50 was 27.8 µM and the IC90 stood at 43.2 µM. On to `CS(=O)(=O)c1ccc([C@@H](O)[C@@H](CF)NC(=O)C(Cl)Cl)cc1`, for which the concentration for half-maximal inhibition (IC50) was 16.8 µM and the IC90 was determined as 27.8 µM. Regarding `Oc1ccc(/C=N/NC(=S)N2CCOCC2)cc1`, the IC50 was 6.06 µM and the IC90 came out at 6.83 µM. With `CSc1nsc(SCC(=O)N2CCCCC2)n1`, the IC50 was 8.65 µM and the IC90 amounted to 12.9 µM.

As for `COc1ccccc1N(O)C1CC(=O)N(c2ccc(Br)cc2)C1=O` (stereo not drawn), the IC50 is 22.9 µM and the IC90 came out at 25.9 µM. Regarding `N#C/C(=C\c1ccc(-c2ccc(Br)cc2)o1)C(=O)NCCc1c[nH]c2ccccc12`, the IC50 is 97.5 µM and the IC90 is more than 100 µM. With `COc1ccc(NC(=O)CSc2nnc(-c3ccccn3)n2N)cc1Cl`, the IC50 was 55.6 µM and the IC90 is more than 100 µM.

Regarding `CCCc1ccc(NC(=O)C2CCN(c3cnccn3)CC2)cc1`, the 50% inhibitory concentration (IC50) is 67.2 µM and the IC90 was found to be 82.7 µM. In the case of `CC(C)CNC(=S)NC(=O)c1csc([N+](=O)[O-])c1`, the IC50 was 22.2 µM and the IC90 was 53.7 µM.

Turning to `NC(=S)N/N=C/c1ccc(-c2ccccc2)o1`, the IC50 was 44 µM and the IC90 worked out at 90.7 µM.

As for `Cc1ccc(S(=O)(=O)NNC(=O)c2cc([N+](=O)[O-])c(C)c([N+](=O)[O-])c2)cc1`, the IC50 is 10.5 µM and the IC90 worked out at 13.8 µM. As to `Cc1cc(C(=O)N/N=C\C(Br)=C\c2ccccc2)c(C)o1`, the 50% inhibitory concentration (IC50) is 44.2 µM and the 90% effect concentration (IC90) turned out to be 53.6 µM. As for `CCc1ccc2oc(-c3cc(N=Cc4cccc(OC)c4O)ccc3O)nc2c1`, the IC50 is 63.8 µM and the IC90 is 95 µM.
